Measurements published in ChEMBL document CHEMBL3425423, “Hydroxy tricyclic 1,5-naphthyridinone oxabicyclooctane-linked novel bacterial topoisomerase inhibitors as broad-spectrum antibacterial agents-SAR of RHS moiety (Part-3)” (Bioorg Med Chem Lett, 2015).
Values after ≈ are worked out from the molar mass of the structure shown.

Columns and labels:
Format in all cases: functional
[1] = system: Enterococcus faecalis; experiment: Antibacterial activity against Enterococcus faecalis ATCC 29212; details: Enterococcus faecalis, ATCC 29212; read-out: MIC
[2] = system: Haemophilus influenzae; experiment: Antibacterial activity against Haemophilus influenzae ATCC 49247; details: Haemophilus influenzae, ATCC 49247; read-out: MIC
[3] = system: Staphylococcus aureus; experiment: Antibacterial activity against Staphylococcus aureus Smith; details: Staphylococcus aureus, Smith; read-out: MIC
[4] = system: Escherichia coli; experiment: Antibacterial activity against Escherichia coli ATCC 25922; details: Escherichia coli, ATCC 25922; read-out: MIC
[5] = system: Pseudomonas aeruginosa; experiment: Antibacterial activity against Pseudomonas aeruginosa PAO1; details: Pseudomonas aeruginosa, PAO1; read-out: MIC
[6] = system: Acinetobacter baumannii; experiment: Antibacterial activity against Acinetobacter baumannii IID876; details: Acinetobacter baumannii, IID876; read-out: MIC
[7] = system: Enterococcus faecium; experiment: Antibacterial activity against VanA-type vancomycin-resistant Enterococcus faecium A2373; details: Enterococcus faecium, A2373; read-out: MIC
[8] = system: Moraxella catarrhalis; experiment: Antibacterial activity against Moraxella catarrhalis ATCC 25238; details: Moraxella catarrhalis, ATCC 25238; read-out: MIC
[9] = system: Streptococcus pneumoniae; experiment: Antibacterial activity against Streptococcus pneumoniae IID554; details: Streptococcus pneumoniae, IID554; read-out: MIC
[10] = system: Staphylococcus aureus; experiment: Ratio of MIC for quinolone-resistant Staphylococcus aureus MS5935 to MIC for quinolone-sensitive Staphylococcus aureus

SMILES	MIC [1]	MIC [2]	MIC [3]	MIC [4]	MIC [5]	MIC [6]	MIC [7]	MIC [8]	MIC [9]	Ratio [10]
O=c1ccc2ncc(F)c3c2n1C[C@@]3(O)CC12CCC(NCc3cc4c(cn3)OCS4)(CC1)CO2	2 µg/mL (≈ 4.03 µM)	4 µg/mL (≈ 8.06 µM)	0.25 µg/mL (≈ 0.503 µM)	8 µg/mL (≈ 16.1 µM)	32 µg/mL (≈ 64.4 µM)	0.5 µg/mL (≈ 1.01 µM)	8 µg/mL (≈ 16.1 µM)	0.5 µg/mL (≈ 1.01 µM)	0.25 µg/mL (≈ 0.503 µM)	
O=c1ccc2ncc(F)c3c2n1C[C@@]3(O)CC12CCC(NCc3cc4c(cn3)OCCC4)(CC1)CO2	4 µg/mL (≈ 8.12 µM)	4 µg/mL (≈ 8.12 µM)	0.13 µg/mL (≈ 0.264 µM)	16 µg/mL (≈ 32.5 µM)	32 µg/mL (≈ 65 µM)	4 µg/mL (≈ 8.12 µM)	16 µg/mL (≈ 32.5 µM)		0.5 µg/mL (≈ 1.02 µM)	
O=c1ccc2ncc(F)c3c2n1C[C@@]3(O)CC12CCC(NC/C=C/c3c(F)cccc3F)(CC1)CO2	4 µg/mL (≈ 8.04 µM)		0.063 µg/mL (≈ 0.127 µM)	16 µg/mL (≈ 32.2 µM)	32 µg/mL (≈ 64.3 µM)	2 µg/mL (≈ 4.02 µM)	8 µg/mL (≈ 16.1 µM)		0.25 µg/mL (≈ 0.502 µM)	<4
O=c1ccc2ncc(F)c3c2n1C[C@@]3(O)CC12CCC(NC/C=C/c3cc(F)ccc3F)(CC1)CO2	4 µg/mL (≈ 8.04 µM)		0.063 µg/mL (≈ 0.127 µM)	4 µg/mL (≈ 8.04 µM)	8 µg/mL (≈ 16.1 µM)	0.25 µg/mL (≈ 0.502 µM)	8 µg/mL (≈ 16.1 µM)		0.25 µg/mL (≈ 0.502 µM)	<4
O=c1ccc2ncc(F)c3c2n1C[C@@]3(O)CC12CCC(NC/C=C/c3ccc(F)cc3)(CC1)CO2	16 µg/mL (≈ 33.4 µM)		0.5 µg/mL (≈ 1.04 µM)	64 µg/mL (≈ 133 µM)	64 µg/mL (≈ 133 µM)	32 µg/mL (≈ 66.7 µM)	32 µg/mL (≈ 66.7 µM)		4 µg/mL (≈ 8.34 µM)	
O=c1ccc2ncc(F)c3c2n1C[C@@]3(O)CC12CCC(NC/C(F)=C\c3cc(F)ccc3F)(CC1)CO2	4 µg/mL (≈ 7.76 µM)		0.25 µg/mL (≈ 0.485 µM)	16 µg/mL (≈ 31 µM)	16 µg/mL (≈ 31 µM)	16 µg/mL (≈ 31 µM)	16 µg/mL (≈ 31 µM)		1 µg/mL (≈ 1.94 µM)	<4
O=c1ccc2ncc(F)c3c2n1C[C@@]3(O)CC12CCC(NC/C(F)=C/c3cc(F)ccc3F)(CC1)CO2	16 µg/mL (≈ 31 µM)		4 µg/mL (≈ 7.76 µM)	16 µg/mL (≈ 31 µM)	16 µg/mL (≈ 31 µM)	16 µg/mL (≈ 31 µM)	16 µg/mL (≈ 31 µM)		8 µg/mL (≈ 15.5 µM)	<4
O=c1ccc2ncc(F)c3c2n1C[C@@]3(O)CC12CCC(NC/C=C/c3ccccc3)(CC1)CO2	4 µg/mL (≈ 8.67 µM)		0.125 µg/mL (≈ 0.271 µM)	32 µg/mL (≈ 69.3 µM)	64 µg/mL (≈ 139 µM)	4 µg/mL (≈ 8.67 µM)	8 µg/mL (≈ 17.3 µM)		0.5 µg/mL (≈ 1.08 µM)	
O=c1ccc2ncc(F)c3c2n1C[C@@]3(O)CC12CCC(NC/C=C/c3ccccn3)(CC1)CO2	32 µg/mL (≈ 69.2 µM)		1 µg/mL (≈ 2.16 µM)	64 µg/mL (≈ 138 µM)	64 µg/mL (≈ 138 µM)	32 µg/mL (≈ 69.2 µM)	64 µg/mL (≈ 138 µM)		4 µg/mL (≈ 8.65 µM)	<4
O=c1ccc2ncc(F)c3c2n1C[C@@]3(O)CC12CCC(NCCCc3cc(F)ccc3F)(CC1)CO2	16 µg/mL (≈ 32 µM)		0.5 µg/mL (≈ 1 µM)	16 µg/mL (≈ 32 µM)	32 µg/mL (≈ 64.1 µM)	2 µg/mL (≈ 4 µM)	32 µg/mL (≈ 64.1 µM)		1 µg/mL (≈ 2 µM)	<4
O=c1ccc2ncc(F)c3c2n1C[C@@]3(O)CC12CCC(NCOc3cc(F)ccc3F)(CC1)CO2	16 µg/mL (≈ 32.8 µM)		1 µg/mL (≈ 2.05 µM)	32 µg/mL (≈ 65.6 µM)	64 µg/mL (≈ 131 µM)	4 µg/mL (≈ 8.21 µM)	32 µg/mL (≈ 65.6 µM)		2 µg/mL (≈ 4.1 µM)	<4
O=c1ccc2ncc(F)c3c2n1C[C@@]3(O)CC12CCC(NCc3cc(-c4cccs4)on3)(CC1)CO2	2 µg/mL (≈ 3.93 µM)		0.25 µg/mL (≈ 0.492 µM)	16 µg/mL (≈ 31.5 µM)	16 µg/mL (≈ 31.5 µM)	16 µg/mL (≈ 31.5 µM)	16 µg/mL (≈ 31.5 µM)		0.5 µg/mL (≈ 0.983 µM)	<4
O=c1cnc2ccc(CNC34CCC(C[C@]5(O)Cn6c(=O)ccc7ncc(F)c5c76)(CC3)OC4)nc2[nH]1	32 µg/mL (≈ 63.4 µM)		8 µg/mL (≈ 15.9 µM)	32 µg/mL (≈ 63.4 µM)	32 µg/mL (≈ 63.4 µM)	32 µg/mL (≈ 63.4 µM)	32 µg/mL (≈ 63.4 µM)		16 µg/mL (≈ 31.7 µM)	<4
COc1ccc2nc(CNC34CCC(C[C@]5(O)Cn6c(=O)ccc7ncc(F)c5c76)(CC3)OC4)c(F)cc2n1	16 µg/mL (≈ 29.9 µM)		16 µg/mL (≈ 29.9 µM)	16 µg/mL (≈ 29.9 µM)	16 µg/mL (≈ 29.9 µM)	16 µg/mL (≈ 29.9 µM)	16 µg/mL (≈ 29.9 µM)		16 µg/mL (≈ 29.9 µM)	<4
Cn1c(=O)c(CNC23CCC(C[C@]4(O)Cn5c(=O)ccc6ncc(F)c4c65)(CC2)OC3)cc2ccccc21	64 µg/mL (≈ 124 µM)		16 µg/mL (≈ 31 µM)	64 µg/mL (≈ 124 µM)	64 µg/mL (≈ 124 µM)	64 µg/mL (≈ 124 µM)	64 µg/mL (≈ 124 µM)		8 µg/mL (≈ 15.5 µM)	<4
O=c1[nH]c2c(F)ccc(F)c2cc1CNC12CCC(C[C@]3(O)Cn4c(=O)ccc5ncc(F)c3c54)(CC1)OC2	32 µg/mL (≈ 59.4 µM)		2 µg/mL (≈ 3.71 µM)	64 µg/mL (≈ 119 µM)	64 µg/mL (≈ 119 µM)	64 µg/mL (≈ 119 µM)	64 µg/mL (≈ 119 µM)		2 µg/mL (≈ 3.71 µM)	<4
